# Test results as given in PubChem BioAssay (NCI).
#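 Grown in 96-well plates, cells were treated for 48 hours with each compound at five concentrations. Insufficient inhibition: endpoint recorded as highest concentration tested. At the GI50, growth is halved. TGI: concentration producing complete growth inhibition.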 Where a SMILES comes first, the peptide text is derived from it. Bridges are numbered along the chain shown (N, C = ends). Roman numbers before positions name the chains, in order. [ ]: non-standard residue; d: D form. The star is where a group is joined. Quinoxaline2carbonyl = O=C(c1cnc2ccccc2n1)*; NMeV = CN[CH](C(=O)O)C(C)C; NMeC = CN[CH](CS)C(=O)O
# Columns and labels:
# Experiment in all cases: inhibition of tumour cell growth, NCI panel, 48 h
# [1] = test system: TK-10 renal
# [2] = test system: COLO 205 colon
# [3] = test system: OVCAR-8 ovarian
# [4] = test system: UACC-257 melanoma
# [5] = test system: A498 renal
# [6] = test system: EKVX NSCLC
# [7] = test system: UACC-62 melanoma
# [8] = test system: T-47D breast
# [9] = test system: MCF7 breast
# [10] = test system: MDA-MB-435
Structure (SMILES),TGI [1],TGI [2],TGI [3],TGI [4],TGI [5],TGI [6],TGI [7],TGI [8],TGI [9],TGI [10],GI50 [1],GI50 [7],GI50 [2],GI50 [9],GI50 [3],GI50 [5],GI50 [6],GI50 [8],GI50 [4],GI50 [10]
Cn1c2ccccc2n2c(=O)c3c(c(C#N)c12)CCCC3,> 100 µM,> 100 µM,> 100 µM,> 100 µM,> 100 µM,> 100 µM,,,,,,,,,,,,,,
CC(C)c1c2[nH]c3ccccc3c2c(C(C)C)c2[nH]c3ccccc3c12,> 100 µM,> 100 µM,> 100 µM,> 100 µM,> 100 µM,> 100 µM,> 100 µM,,,,,,,,,,,,,
c1ccc2c3c([nH]c2c1)C1CCCN1CC3 (stereo not drawn),> 10 µM,> 10 µM,> 10 µM,> 10 µM,> 10 µM,> 10 µM,,> 10 µM,> 10 µM,> 10 µM,,,,,,,,,,
COc1ccc(C2[C@@H](Cl)C(=O)N2c2cc(OC)c(OC)c(OC)c2)cc1Cl (stereo partly drawn),71.7 µM,0.512 µM,20.5 µM,,0.263 µM,> 100 µM,29 µM,,> 100 µM,,0.94 µM,0.0463 µM,0.203 µM,0.0367 µM,0.272 µM,0.0285 µM,0.434 µM,,,
Cc1ccc(S(=O)OC2C3CC4CC(C3)CC2C4)cc1 (stereo not drawn),> 100 µM,> 100 µM,> 100 µM,> 100 µM,> 100 µM,> 100 µM,> 100 µM,,,,,,,,,,,,,
O=P1(Oc2ccccc2)C(c2ccccc2)C(c2ccccc2)=NN1c1ccccc1 (stereo not drawn),> 100 µM,36.4 µM,> 100 µM,75.8 µM,84.6 µM,> 100 µM,35.3 µM,,,,,,,,,,,,,
C[CH2][Pb]([CH2]C)([CH2]C)[O]C(=O)c1ccc2ccccc2n1,,> 10 µM,> 10 µM,> 10 µM,> 10 µM,> 10 µM,> 10 µM,> 10 µM,,> 10 µM,,> 10 µM,> 10 µM,,> 10 µM,> 10 µM,> 10 µM,> 10 µM,> 10 µM,> 10 µM
O=C([CH-]C(=O)c1ccccc1)c1ccccc1.O=C([CH-]C(=O)c1ccccc1)c1ccccc1.[OH-].[OH-].[Ti+4],> 100 µM,> 100 µM,> 100 µM,> 100 µM,> 100 µM,> 100 µM,> 100 µM,,,,> 100 µM,66.5 µM,> 100 µM,,55 µM,40.5 µM,94.9 µM,,> 100 µM,
N#Cc1ccc(N=Cc2c([O-])ccc3ccccc23)cc1.[C-]#[O+].[C-]#[O+].[Ir],13.5 µM,4 µM,28 µM,29 µM,37.5 µM,25 µM,24.6 µM,,,,4.35 µM,12.2 µM,1.96 µM,,6.03 µM,22.5 µM,11.5 µM,,10.6 µM,
COC(CN1C=C(Sc2ccccc2)CC1)OC,> 100 µM,47.4 µM,86.9 µM,98.1 µM,> 100 µM,> 100 µM,> 100 µM,,,,,,,,,,,,,
CCOc1nc(N)nc(C)c1N=Nc1ccc(Cl)cc1,> 100 µM,> 100 µM,> 100 µM,> 100 µM,,> 100 µM,> 100 µM,> 100 µM,> 100 µM,> 100 µM,,,,,,,,,,
COCCOCOc1ccc(OCOCCOC)c2c1C(=O)c1ccccc1C2=O,> 100 µM,> 100 µM,> 100 µM,> 88.9 µM,> 100 µM,> 100 µM,> 100 µM,,,,,,,,,,,,,
Cc1cc2c(c(C(=O)O)c1C)-c1cccc(F)c1C2=O,> 100 µM,> 100 µM,> 100 µM,> 100 µM,,> 100 µM,> 100 µM,,,,,,,,,,,,,
[N-]=[N+]=C1C(=O)C2CC3CC(C2)CC1C3,> 100 µM,> 100 µM,> 100 µM,> 100 µM,> 100 µM,> 100 µM,> 100 µM,,,,,,,,,,,,,
"CC1NC(=O)C(NC(=O)c2cnc3ccccc3n2)COC(=O)C(C(C)C)N(C)C(=O)C2CSSCC(C(=O)N(C)C(C(C)C)C(=O)OCC(NC(=O)c3cnc4ccccc4n3)C(=O)NC(C)C(=O)N2C)N(C)C1=O (stereo not drawn) (I: Quinoxaline2carbonyl-SA[NMeC][NMeV] / II: Quinoxaline2carbonyl-SA[NMeC][NMeV]; ester I:1-II:C, I:C-II:1; disulfide I:3-II:3; configuration not given here)",> 5.39 µM,,< 0.215 µM,0.0162 µM,< 0.01 µM,,< 0.01 µM,,< 0.01 µM,< 0.01 µM,,,,,,,,,,
CCC1(O)C(=O)OCc2c1cc1n(c2=O)Cc2cc3cc(N)ccc3nc2-1 (stereo not drawn),> 28.2 µM,7.25 µM,4.45 µM,1.89 µM,1.06 µM,> 28.9 µM,0.251 µM,> 100 µM,> 54.3 µM,,,,,,,,,,,
CN1CCN(CC(O)COc2c(Br)c(Br)c(Br)c3c2OC(C)(C)C3)CC1 (stereo not drawn),37.7 µM,,42.2 µM,,28.7 µM,19.7 µM,3.29 µM,38.5 µM,14.5 µM,,15 µM,1.83 µM,,3.33 µM,10.3 µM,10.1 µM,5.21 µM,12.6 µM,,
O=C(NC1CCCC1=O)c1ccccc1 (stereo not drawn),> 100 µM,,> 100 µM,> 100 µM,> 100 µM,> 100 µM,> 100 µM,,,,,,,,,,,,,
CCO/C=C1\N=C(c2ccccc2Br)OC1=O,> 100 µM,> 100 µM,> 100 µM,> 100 µM,> 100 µM,> 100 µM,> 100 µM,,,,,,,,,,,,,
CC(C)(C)CN1CCn2c(nc3c(N)nccc32)S1,> 100 µM,16.3 µM,> 100 µM,79.1 µM,,> 100 µM,88.5 µM,> 100 µM,37 µM,86.1 µM,16.6 µM,13.7 µM,4.02 µM,3.97 µM,6.27 µM,,30.9 µM,13 µM,19.7 µM,6.67 µM
COc1cc2nc(NCCCCCNC(=O)c3ccco3)nc(N)c2cc1OC,> 100 µM,38.2 µM,> 100 µM,38.1 µM,> 100 µM,> 100 µM,52.6 µM,,,,,,,,,,,,,
